Data set [1] is described as follows: Selectivity index, ratio of IC50 for cytotoxicity against human MRC5 cells to IC50 for antileishmanial activity against Leishmania major (MHOM/IL/80/Friedlin) promastigotes. It is filed as toxicity, cell-based. As to conditions: read-out: Ratio IC50.
Data set [2] deals with HeLa. In words: Cytotoxicity against human HeLa cells assessed as inhibition of cell proliferation incubated for 72 hrs by alamar blue assay. In kind it is functional, cell-based. The following applies: Homo sapiens, HeLa, 72 h. On the technique in general: Resazurin is reduced to fluorescent resorufin, in cell work by metabolically active cells.
In data set [3] the test system is Quadruplex DNA. The data set is described as follows: Binding affinity to Trypanosoma brucei G-quadruplex telomeric DNA FEBR1T (5'-duplex GGG TTAGGG TTAGGG TTAGGG-3') assessed as stabilization by measuring change in melting temperature at 10 uM in potassium buffer by FRET melting assay. It is filed as nucleic-acid assay.
Data set [4] can be described thus: Binding affinity to hairpin duplex DNA F10T (unknown origin) assessed as stabilization by measuring change in melting temperature at 10 uM in potassium buffer by FRET melting assay.
The subject of data set [5] is Quadruplex DNA. In words: Binding affinity to G-quadruplex telomeric DNA F21T (5'-duplex GGG TTAGGG TTAGGG TTAGGG-3') (unknown origin) assessed as stabilization by measuring change in melting temperature at 10 uM in potassium buffer by FRET melting assay. It is filed as nucleic-acid assay.
Data set [6] is described as follows: Cytotoxicity against human MRC5 cells assessed as inhibition of cell proliferation incubated for 72 hrs by alamar blue assay. In kind it is toxicity, cell-based. The following applies: human, MRC5 cells.
Data set [7] is described as follows: Selectivity index, ratio of IC50 for cytotoxicity against human MRC5 cells to IC50 for antitrypanosomal activity against Trypanosoma brucei bloodstream form. As to conditions: MRC5 cells versus Trypanosoma brucei bloodstream form, read-out: Ratio IC50. In kind it is toxicity, cell-based.
Data set [8] concerns Trypanosoma brucei. The data set is described as follows: Antitrypanosomal activity against Trypanosoma brucei bloodstream form assessed as inhibition of parasite growth incubated for 72 hrs by alamar blue assay. The following applies: Trypanosoma brucei, 72 h. In kind it is functional, organism-based.
Data set [9] has as its system Quadruplex DNA. The data set is described as follows: Binding affinity to G-quadruplex telomeric DNA F21T (5'-duplex GGG TTAGGG TTAGGG TTAGGG-3') (unknown origin) assessed as stabilization by measuring change in melting temperature at 10 uM in sodium buffer by FRET melting assay. It is filed as nucleic-acid assay.
In data set [10] the test system is Leishmania major. The data set is described as follows: Antileishmanial activity against Leishmania major (MHOM/IL/80/Friedlin) promastigotes assessed as inhibition of parasite growth incubated for 72 hrs by MTT assay. In kind it is functional, organism-based. The following applies: Leishmania major, MHOM/IL/80/Friedlin, 72 h. A general note: Formazan colour is commonly taken as a measure of viable cells.

For data set [11], the system named is Quadruplex DNA. In words: Binding affinity to G-quadruplex telomeric DNA FMycT (5'-duplex GGG TTAGGG TTAGGG TTAGGG-3') (unknown origin) assessed as stabilization by measuring change in melting temperature at 10 uM in potassium buffer by FRET melting assay. In kind it is nucleic-acid assay.
The nature of data set [12]: Selectivity index, ratio of IC50 for cytotoxicity against human MRC5 cells to IC50 for cytotoxicity against human HeLa cells. In kind it is toxicity, cell-based. As to conditions: MRC5 cells versus HeLa cells, read-out: Ratio IC50.

In general, IC50 refers to the concentration that inhibits the measured activity by half. Usually ΔTm stands for the change in melting temperature against a reference sample.

For the molecule `C[n+]1cccc(N2C(=O)c3ccc4c5c(ccc(c35)C2=O)C(=O)N(c2ccc[n+](C)c2)C4=O)c1`, the selectivity ratio in [1] is less than 0.28; in [7], 0.41. Moreover, the 50% inhibitory concentration (IC50) in data set [2] is more than 63.9 µM; in [8], 44.1 µM; in data set [10], more than 63.9 µM. For the same molecule, the ΔTm in [3] was 0.7 °C; in data set [4] it was 0 °C; in data set [5], 0.5 °C; in [9], 1.3 °C; in data set [11], -1.6 °C. For the same molecule, in data set [6], the IC50 at 72 h amounted to 18.2 µM.
Regarding `O=C1c2ccc3c4c(ccc(c24)C(=O)N1CCCN1CCOCC1)C(=O)N(CCCN1CCOCC1)C3=O`, the selectivity ratio in data set [1] is 2.75; in data set [12], 3.81; in data set [7], 20.8. The IC50 is 5.83 µM in data set [2], 0.57 µM in data set [8] and 4.32 µM in data set [10]. Also, the ΔTm in [3] is 3.1 °C; in data set [4] it was 1 °C; in data set [5] it was 7 °C; in data set [9], -7 °C; in data set [11] it was 2 °C. Also, in data set [6], the IC50 at 72 h worked out at 11.9 µM.
With `CN1CCN(c2cccc(N3C(=O)c4ccc5c6c(ccc(c46)C3=O)C(=O)N(c3cccc(N4CCN(C)CC4)c3)C5=O)c2)CC1`, the selectivity ratio in data set [1] was determined as 4.41; in data set [12] it was 3.09; in [7] it was 7.91. Also, the results for the IC50 in data set [2], in data set [8] and in [10] were 0.47 µM, 0.18 µM and 0.33 µM, respectively. For the same molecule, the ΔTm in data set [3] was determined as 4.6 °C; in [4], 0.1 °C; in data set [5] it was 6.4 °C; in data set [9] it was 5.8 °C; in data set [11], 8 °C. The IC50 at 72 h in data set [6] worked out at 1.48 µM.
Turning to `C[n+]1cccc2cc(N3C(=O)c4ccc5c6c(ccc(c46)C3=O)C(=O)N(c3ccc4c(ccc[n+]4C)c3)C5=O)ccc21`, the values for the selectivity ratio in data set [1], in data set [12] and in data set [7] were 0.068, 0.031 and 0.3, respectively. The IC50 was determined as 37 µM in data set [2], 3.71 µM in [8] and 16.8 µM in [10]. Moreover, the ΔTm in data set [3] was 2.5 °C; in data set [4], 1.4 °C; in [5] it was 4.6 °C; in data set [9], 3.5 °C; in [11], 11 °C. Moreover, the IC50 at 72 h in data set [6] is 1.15 µM.
Regarding `O=C1c2ccc3c4c(ccc(c24)C(=O)N1c1ccccc1N1CCOCC1)C(=O)N(c1ccccc1N1CCOCC1)C3=O`, the selectivity ratio came out at 0.8 in data set [1], 2.34 in data set [12] and 41.9 in [7]. Also, the IC50 in [2] is 3.09 µM; in data set [8], 0.17 µM; in data set [10], 9.04 µM. Also, the IC50 at 72 h in data set [6] was determined as 7.25 µM.
With `CN1CCN(CCN2C(=O)c3ccc4c5c(ccc(c35)C2=O)C(=O)N(CCN2CCN(C)CC2)C4=O)CC1`, the selectivity ratio in data set [1] is 4.04; in data set [12], 6.4; in data set [7], 14.2. For the same molecule, the IC50 in data set [2] stood at 1.06 µM; in data set [8], 0.48 µM; in [10], 1.68 µM. The ΔTm in data set [3] was found to be 12 °C; in data set [4], 2.7 °C; in data set [5], 21.5 °C; in [9], 11.3 °C; in data set [11], 16 °C. Besides, the IC50 at 72 h in [6] is 6.78 µM.
Turning to `CN1CCN(C(C)(C)CN2C(=O)c3ccc4c5c(ccc(c35)C2=O)C(=O)N(CC(C)(C)N2CCN(C)CC2)C4=O)CC1`, the selectivity ratio in data set [1] is 0.14; in [12], 0.76; in data set [7], 3.5. The IC50 stood at 4.47 µM in data set [2], 0.96 µM in data set [8] and 24.6 µM in data set [10]. Also, the ΔTm stood at 4 °C in [3]; 0.2 °C in [4]; 20.7 °C in data set [5]; 10.2 °C in data set [9]; 14.8 °C in data set [11]. Moreover, in data set [6], the IC50 at 72 h is 3.38 µM.
For the molecule `C[n+]1cc(N2C(=O)c3ccc4c5c(ccc(c35)C2=O)C(=O)N(c2cc3ccccc3[n+](C)c2)C4=O)cc2ccccc21`, the selectivity ratio in [1] was found to be 0.065; in data set [12] it was 0.053; in data set [7], 0.17. Further, the values for the IC50 in data set [2], in [8] and in data set [10] were 64.8 µM, 19.7 µM and 52.1 µM, respectively. Moreover, the shift in melting temperature (ΔTm) in data set [3] was -0.9 °C; in data set [4], 0.1 °C; in data set [5], 0.3 °C; in data set [9] it was 0.4 °C; in data set [11], 1.2 °C. In addition, the IC50 at 72 h in data set [6] was 3.41 µM.
Turning to `CC(CN1C(=O)c2ccc3c4c(ccc(c24)C1=O)C(=O)N(CC(C)N1CCN(C)CC1)C3=O)N1CCN(C)CC1` (stereo unspecified), the figures for the selectivity ratio in data set [1], in data set [12] and in [7] were 0.17, 0.83 and 8.2, respectively. In addition, the IC50 in [2] amounted to 1.68 µM; in data set [8] it was 0.17 µM; in data set [10], 8.08 µM. Moreover, the ΔTm was 17.5 °C in data set [3]; 1.7 °C in data set [4]; 20.5 °C in data set [5]; 9.2 °C in data set [9]; 13.2 °C in data set [11]. In addition, the IC50 at 72 h in data set [6] amounted to 1.4 µM.
Take `CN1CCN(CC2(CN3C(=O)c4ccc5c6c(ccc(c46)C3=O)C(=O)N(CC3(CN4CCN(C)CC4)CC3)C5=O)CC2)CC1`: the selectivity ratio in data set [1] was found to be 0.12; in data set [12] it was 0.85; in data set [7], 3.6. The IC50 in [2] turned out to be 1.77 µM; in [8], 0.42 µM; in [10], 12.7 µM. Also, the ΔTm in data set [3] came out at 15.5 °C; in data set [4], 0.5 °C; in data set [5] it was 18.5 °C; in data set [9], 7.7 °C; in data set [11], 15 °C. Further, the IC50 at 72 h in data set [6] was 1.51 µM.
For `CC(CCN1C(=O)c2ccc3c4c(ccc(c24)C1=O)C(=O)N(CCC(C)N1CCN(C)CC1)C3=O)N1CCN(C)CC1` (stereo unspecified), the selectivity ratio was found to be 5.17 in data set [1], 3.54 in [12] and 9.5 in data set [7]. The IC50 is 0.35 µM in data set [2], 0.13 µM in data set [8] and 0.24 µM in data set [10]. For the same molecule, the ΔTm was 24.8 °C in [3]; 4.5 °C in [4]; 28.5 °C in [5]; 18.8 °C in data set [9]; 22 °C in data set [11]. Also, the IC50 at 72 h in [6] came out at 1.24 µM.
As to `C[n+]1ccc(CN2C(=O)c3ccc4c5c(ccc(c35)C2=O)C(=O)N(Cc2cc[n+](C)cc2)C4=O)cc1`, the selectivity ratio in [1] worked out at 0.31; in [12] it was 0.033; in data set [7], 0.49. Also, the IC50 in [2] was 14.7 µM; in data set [8], 0.98 µM; in data set [10], 1.56 µM. The ΔTm came to 9 °C in data set [3]; 5 °C in [4]; 13 °C in data set [5]; 4.9 °C in data set [9]; 20.1 °C in data set [11]. Besides, the IC50 at 72 h in data set [6] turned out to be 0.49 µM.
Regarding `O=C1c2ccc3c4c(ccc(c24)C(=O)N1CC(c1ccccn1)N1CCOCC1)C(=O)N(CC(c1ccccn1)N1CCOCC1)C3=O` (stereo unspecified), the figures for the selectivity ratio in [1], in [12] and in data set [7] were less than 0.83, 0.85 and 1.6, respectively. The IC50 is 96.9 µM in data set [2], 51.7 µM in data set [8] and more than 100 µM in data set [10]. In addition, the ΔTm in [3] amounted to 0.7 °C; in [4], 0.3 °C; in [5] it was 0.1 °C; in data set [9], 0.9 °C; in [11], 0.1 °C. The IC50 at 72 h in data set [6] is 83.1 µM.
As for `C[n+]1ccc(N2C(=O)c3ccc4c5c(ccc(c35)C2=O)C(=O)N(c2cc[n+](C)cc2)C4=O)cc1`, the half-inhibitory concentration (IC50) in data set [2] was more than 63.9 µM; in [8], 48.7 µM; in data set [10] it was more than 63.9 µM. Moreover, the shift in melting temperature (ΔTm) in [3] is -0.5 °C; in [4] it was -0.2 °C; in data set [5], -0.4 °C; in data set [9], 0 °C; in data set [11], -3.5 °C. The IC50 at 72 h in [6] was more than 63.9 µM. The selectivity ratio in data set [7] is more than 1.31.
For the molecule `CN1CCN(CCCN2C(=O)c3ccc4c5c(ccc(c35)C2=O)C(=O)N(CCCN2CCN(C)CC2)C4=O)CC1`, the IC50 in data set [2] came to 0.41 µM; in [8] it was 0.61 µM; in [10] it was 0.47 µM. Moreover, the ΔTm in [3] was 11 °C; in data set [4], 3 °C; in data set [5], 20 °C; in [9] it was 2 °C; in data set [11] it was 13 °C. For the same molecule, in [6], the IC50 at 72 h amounted to 3.9 µM.
In the case of `O=C1c2ccc3c4c(ccc(c24)C(=O)N1c1ccc(N2CCOCC2)cc1)C(=O)N(c1ccc(N2CCOCC2)cc1)C3=O`, the selectivity ratio in data set [1] amounted to 1.5; in data set [12] it was 1.47; in data set [7], 4.88. Further, the IC50 in data set [2] was determined as 46.4 µM; in data set [8] it was 14 µM; in [10], 45.4 µM. Besides, in data set [6], the IC50 at 72 h was found to be 68.4 µM.

These data come from ChEMBL document CHEMBL5108010, “Structure-activity relationship studies on divalent naphthalene diimide G quadruplex ligands with anticancer and antiparasitic activity” (Bioorg Med Chem, 2022).
